Experimental data reported in US7220554B2, “Methods for identifying inhibitors” (priority 2003, dated 2007).
“Also recorded” adds a separate entry of the source. Non-standard residues stand in square brackets, D forms with d. Residues, ends and D or L forms follow the SMILES beside them. *: point of attachment. Nle = CCCC[C@H](N)C(=O)O; Cbz = O=C(OCc1ccccc1)*; OtBu = CC(C)(C)O*

What was measured:
[1] = tested on: polyubiquitinated APOBEC3G; assay: Ni-NTA purification of APOBEC3G-Myc in 8M urea and immunoblotting with ubiquitin-specific antibody; assay type: cell-based, human; conditions: 293T; ALLN 10 hours; FIG. 11B
Source text: Expression vectors: pHIV-gpt(wt) and its derivative pHIV-gpt(Δvif) were previously described (Madani & Kabat, J. Virol. 72, 10251–10255, 1998; Page et al., J Virol 64, 5270–5276, 1990; Madani & Kabat, J. Virol. 74, 5982–5987, 2000). pcDNA3.1-Vif was donated by D. Gabuzda (Dana-Farber Cancer Institute, Harvard, Boston, Mass.). Rev-dependent plasmids for expression of the Vif mutants Δ2, Δ5, Δ6, Δ7, Δ9, Δ10, Δ12 and Δ13 (Simon et al., J. Virol. 73, 2675–2681, 1999) were provided by M. Malim (Medical Research Council, Cambridge, UK) and were coexpressed with pHIV-gpt(Δvif). APOBEC3G cDNA was cloned from H9 cells (nonpermissive) by reverse transcriptase-PCR (Barnes, Proc. Natl. Acad. Sci. USA 91, 2216–2220, 1994; Sambrook et al., Molecular Cloning. A Laboratory Manual, Chapter 14, 14.5–14.34., CSHL Press, Cold Spring Harbor, 1989) using primers complementary to the 5′ and 3′ ends of APOBEC3G coding region (Sheehy et al., Nature 418, 646–650, 2002) (upstream primer, 5′-[…]-3′ (SEQ ID NO: 15) containing an XhoI restriction site [underlined]; downstream primer, 5′-[…]-3′ (SEQ ID NO: 16) containing a SfuI restriction site [underlined]). […] Virus-containing fractions were detected by immunoblotting using HIV Immunoglobulin serum (AIDS Research & Reference Reagent Program, Division of AIDS, NIAID, NIH: contributed by NABI and NHLBI). […]

[2] = tested on: Vif-dependent down modulation of APOBEC3G-Myc; assay: Western immunoblotting of APOBEC3G-Myc in cotransfected 293T cultures that contain or lack Vif; assay type: cell-based, human; conditions: for quantity of APOBEC3G-Myc in the cultures that contained Vif: incubated 10 hours, FIG. 11A
Source text: (§1) Expression vectors: pHIV-gpt(wt) and its derivative pHIV-gpt(Δvif) were previously described (Madani & Kabat, J. Virol. 72, 10251–10255, 1998; Page et al., J Virol 64, 5270–5276, 1990; Madani & Kabat, J. Virol. 74, 5982–5987, 2000). pcDNA3.1-Vif was donated by D. Gabuzda (Dana-Farber Cancer Institute, Harvard, Boston, Mass.). Rev-dependent plasmids for expression of the Vif mutants Δ2, Δ5, Δ6, Δ7, Δ9, Δ10, Δ12 and Δ13 (Simon et al., J. Virol. 73, 2675–2681, 1999) were provided by M. Malim (Medical Research Council, Cambridge, UK) and were coexpressed with pHIV-gpt(Δvif). APOBEC3G cDNA was cloned from H9 cells (nonpermissive) by reverse transcriptase-PCR (Barnes, Proc. Natl. Acad. Sci. USA 91, 2216–2220, 1994; Sambrook et al., Molecular Cloning. A Laboratory Manual, Chapter 14, 14.5–14.34., CSHL Press, Cold Spring Harbor, 1989) using primers complementary to the 5′ and 3′ ends of APOBEC3G coding region (Sheehy et al., Nature 418, 646–650, 2002) (upstream primer, 5′-[…]-3′ (SEQ ID NO: 15) containing an XhoI restriction site [underlined]; downstream primer, 5′-[…]-3′ (SEQ ID NO: 16) containing a SfuI restriction site [underlined]). The cDNA was cloned between XhoI and SfuI into the pcDNA3.1/Myc-His C mammalian expression vector (Invitrogen) to obtain the pcDNA3.1-APOBEC3G-Myc vector. The pSVIIIEnv vector was used to pseudotype HIV-gpt virions (Helseth et al., J. Virol. 64, 2416–2420, 1990). Transfections employed PolyFect reagent (Qiagen, Inc.) according to the manufacturer's instructions, with equimolar ratios of all plasmids and with harvests after 36 hours unless otherwise mentioned. Viruses: HIV-gpt virions were produced and titered as previously described (Page et al., J Virol 64, 5270–5276, 1990; Page et al., J Virol 66, 524–533, 1992; Platt et al., J. Virol. 75, 12266–12278, 2001). For viral purifications, 27 ml of the virus-containing media from 293T cells were pelleted through 2 ml of a 20% sucrose at 100,000 g for 1.5 hours. Virions were resuspended in TSE (0.1 M NaCl, 1 mM EDTA, 0.01M Tris-Cl, pH 7.4), and centrifuged to equilibrium in 5 ml 20–60% sucrose gradients in TSE at 200,000 g for 2.5 hours. Virus-containing fractions were detected by immunoblotting using HIV Immunoglobulin serum (AIDS Research & Reference Reagent Program, Division of AIDS, NIAID, NIH: contributed by NABI and NHLBI). Peak fractions were pooled, diluted with TSE, and pelleted through 20% sucrose at 100,000 g for two hours. Analysis of proteins and RNAs: Extracts of cotransfected 293T and COS7 cultures were prepared using either TX (1% Triton X-100, 150 mM NaCl, 10 mM Tris-Cl, pH 7.5, 1 mM MgCl) or RIPA (50 mM Tris-Ci pH 7.4, 1% Nonidet P40, 0.1% sodium deoxycholate, 150 mM NaCl) buffers with complete protease inhibitors (Roche), followed by centrifugation at 1,500 g for 5 minutes to sediment nuclei. Extracts were adjusted to equivalent protein concentrations using the Bradford reagent (BioRad Laboratories), and equal aliquots were then used for Western immunoblotting (Marin et al., J. Virol. 74, 8085–8093, 2000) or for immunoprecipitations (Klippel et al., Mol. Cell. Biol. 14, 2675–2685, 1994) using the antibodies HIV-1 HXB2 Vif rabbit antiserum #2221, (AIDS Research and Reference Reagent Program, Division of AIDS, NIAID, NIH: contributed by Dr. D. Gabuzda), Myc-specific monoclonal antibody clone 9E10 (Sigma) (Marin et al., J. Virol. 74, 8085–8093, 2000), or the ubiquitin-specific mouse monoclonal antibody (Zymed). […] Where indicated, cultures were preincubated with 50 μM concentrations of the proteasome inhibitors ALLN, MG-132, or Proteasome Inhibitor-I (Calbiochem).

[3] = tested on: total cellular polyubiquitinated proteins; assay: Western blot of total cell culture extracts with ubiquitin-specific antibody; assay type: cell-based, human; conditions: 293T; for amounts of total polyubiquitinated proteins (inhibitor activity in cultures with and without Vif): 50 μM inhibitor; for quantities of total cellular polyubiquitinated proteins (inhibitor activity in both cultures): preincubated 6 hours, FIG. 9B
Source text: as §1

[4] = tested on: Vif-mediated elimination of YFP-APOBEC3G; assay: Fluorescence of YFP-APOBEC3G in 293T cultures cotransfected with Vif; assay type: cell-based, human; conditions: ALLN for eight hours
Source text: Using methods essentially similar to those described in Example 1, a vector was constructed that encodes a chimeric protein containing the yellow fluorescent protein (YFP) at the amino terminus and APOBEC3G at the carboxyl terminus (YFP-APOBEC3G; SEQ ID NOs: 3 and 4). Cotransfection of plasmids that encode this chimera and Vif into human 293T cell cultures results in only a few fluorescent cells, consistent with a Vif-induced degradation (FIG. 13A, top two panels). In contrast, cotransfection with a vector lacking Vif results in a much larger fraction of fluorescent cells.

APOBEC3G-Myc = assay: Immunofluorescence microscopy of Vif and APOBEC3G-Myc in cotransfected COS7 cells; assay type: cell-based, African green monkey; conditions: ALLN in DMSO, FIG. 5B
Procedure: For immunofluorescence, COS7 cells were used because they are more adherent than 293T cells. Cells cultured in Permanox chamber slides (Nalge Nunc International) were fixed in 5% formaldehyde and 2% sucrose in PBS (Invitrogen) at room temperature for 20 minutes, and permeabilized with 1% Triton X-100 in PBS with 10% sucrose for 30 minutes. Primary antibodies were Vif antiserum #2221 or the Myc-specific monoclonal antibody 9E10. Secondary fluorescent antibodies were Alexa Fluor 488 goat anti-rabbit IgG(H+L) and Alexa Fluor 594 goat anti-mouse IgG (H+L) (Molecular Probes Inc), which reacted only with their species-specific primary antibodies. Slides were mounted in FluoroGuard (BioRad Laboratories), and observed with a Zeiss Axiovert 200M deconvolution microscope. The percentage of double-positive cells in FIG. 5B is defined as the percentage of the Vif-positive cells and that contained APOBEC3G-Myc. RNA extraction and Northern blot analyses were previously described (Tailor et al., Proc. Natl. Acad. Sci. USA 96, 927–932, 1999). A cDNA probe for the S2 ribosomal protein was used as a loading control.

SMILES	amount of polyubiquitinated APOBEC3G-Myc, effect of proteasome inhibitor [1]	control protein α-tubulin ([2]; 50 μM inhibitor, 6–10 hour)	quantities of APOBEC3G-Myc in the cultures that contained Vif ([2]; 50 μM inhibitor, 6–10 hour)	quantities of APOBEC3G-Myc in the cultures that lacked Vif ([2]; 50 μM inhibitor, 6–10 hour)	quantity of APOBEC3G-Myc in the cultures that contained Vif [2]	quantities of APOBEC3G-Myc in the cultures that contained Vif ([2]; preincubated 6 hours, FIG. 9B)	quantities of APOBEC3G-Myc in the cultures that lacked Vif ([2]; preincubated 6 hours, FIG. 9B)	amounts of total polyubiquitinated proteins (inhibitor activity in cultures with and without Vif) [3]	quantities of total cellular polyubiquitinated proteins (inhibitor activity in both cultures) [3]	cells with YFP-APOBEC3G fluorescence in the culture that contains Vif [4]	percentage of cells that coexpressed wild-type Vif and APOBEC3G-Myc (APOBEC3G-Myc)
CCCC[C@@H](C=O)NC(=O)[C@H](CC(C)C)NC(=O)[C@H](CC(C)C)NC(C)=O [ALLN] (Ac-Leu-Leu-[Nle]-aldehyde)	substantially increased; also recorded: greatly increased	no effect	increased the quantities of APOBEC3G-Myc	not in the cultures that lacked Vif	increased the quantity of APOBEC3G-Myc	increased the quantities of APOBEC3G-Myc	not in the cultures that lacked Vif	active in both cultures	active in both cultures	reverses the Vif-dependent elimination of the chimeric protein; also recorded: blocks Vif-mediated elimination of YFP-APOBEC3G; also recorded: accumulate in many more cells	dramatic increase in coexpression; also recorded: this decrease was alleviated by ALLN
CC(C)C[C@@H](C=O)NC(=O)[C@H](CC(C)C)NC(=O)[C@H](CC(C)C)NC(=O)OCc1ccccc1 [MG-132] (Cbz-Leu-Leu-Leu-aldehyde)		no effect	increased the quantities of APOBEC3G-Myc	not in the cultures that lacked Vif	increased the quantity of APOBEC3G-Myc	increased the quantities of APOBEC3G-Myc	not in the cultures that lacked Vif	active in both cultures	active in both cultures		
CC[C@H](C)[C@H](NC(=O)OCc1ccccc1)C(=O)N[C@@H](CCC(=O)OC(C)(C)C)C(=O)N[C@@H](C)C(=O)N[C@H](C=O)CC(C)C [Proteasome Inhibitor-I] (Cbz-IE(OtBu)AL-aldehyde)		no effect	increased the quantities of APOBEC3G-Myc	not in the cultures that lacked Vif	increased the quantity of APOBEC3G-Myc	increased the quantities of APOBEC3G-Myc	not in the cultures that lacked Vif	active in both cultures	active in both cultures		
